Results on 75 compounds are retold here after patent publication US20260001879A1, “COMPOUNDS AS MYT1 INHIBITORS” (WIGEN BIOMMEDICINE TECHNOLOGY (SHANGHAI) CO., LTD., priority 2022, published 2026).

pIC50: −log10 of the molar value.

recombinant protein MYT1, sequence (Q99640 whole entry): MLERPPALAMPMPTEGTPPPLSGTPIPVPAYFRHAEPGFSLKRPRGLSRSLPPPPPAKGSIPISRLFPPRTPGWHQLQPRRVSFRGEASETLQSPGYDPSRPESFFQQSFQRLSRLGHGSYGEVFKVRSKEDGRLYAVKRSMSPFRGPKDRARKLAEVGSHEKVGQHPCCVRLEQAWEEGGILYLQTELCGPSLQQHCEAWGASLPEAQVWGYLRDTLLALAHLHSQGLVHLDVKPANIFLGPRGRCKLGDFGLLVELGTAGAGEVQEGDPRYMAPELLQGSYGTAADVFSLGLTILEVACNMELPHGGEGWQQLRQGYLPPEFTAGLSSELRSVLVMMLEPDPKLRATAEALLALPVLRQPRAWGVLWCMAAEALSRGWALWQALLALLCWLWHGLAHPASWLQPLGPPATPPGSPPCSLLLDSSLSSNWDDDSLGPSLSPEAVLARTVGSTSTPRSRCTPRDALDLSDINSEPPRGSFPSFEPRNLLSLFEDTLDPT

In this assay the target is recombinant protein MYT1 (Homo sapiens (Human), UniProt Q99640). The assay can be described thus: In vitro assay for inhibiting MYT1 kinase activity (ADP-GLO). The assay is classed as biochemical. The conditions noted are these: 10 μM ATP, read-out: Inhibitory activity against recombinant protein MYT1 IC50. Here is the method:
Recombinant MYT1 protein and the compounds were pre-incubated at room temperature for 15 min, and 10 μM ATP was then added to start the reaction. The mixture was incubated at room temperature for another 60 min, and the ADP-GLO reagent from Promega was then added. The resulting mixture was incubated in the dark for 40 min, a detection solution was then added, and the mixture was incubated for another 45-60 min. The chemiluminescence was determined using ENVISION. The inhibition rate and IC50 were calculated compared to the DMSO group.
For the compound `Cc1cc2c(C(N)=O)c(N)n(-c3c(C)c(O)cc(F)c3C)c2nc1C` (single isomer, unassigned) [Compound 1], the pIC50 is not below 6.70.
To `Cc1cc2c(C(N)=O)c(N)n(-c3c(C)cc(F)c(O)c3C)c2nc1C` (single isomer, unassigned) [Compound 5] belongs not below 6.70.
For the compound `Cc1cc2c(C(N)=O)c(N)n(-c3c(Cl)cc(F)c(O)c3C)c2nc1C` [Compound 4], the pIC50 was not below 6.70.
To `Cc1cc2c(C(N)=O)c(N)n(-c3c(C)cc(F)c(O)c3Cl)c2nc1C` [Compound 8] belongs not below 6.70.
To `Cc1ccc(O)c(C)c1-n1c(N)c(C(N)=O)c2cc(C#N)c(C)nc21` [Compound 9] belongs not below 6.70; to `Cc1ccc(O)c(C)c1-n1c(N)c(C(N)=O)c2cc3c(nc21)COC3` [Compound 15], not below 6.70; to `Cc1ccc(O)c(C)c1-n1c(N)c(C(N)=O)c2cc3c(nc21)CCO3` [Compound 18], not below 6.70.
As to `Cc1ccc(O)c(C)c1-n1c(N)c(C(N)=O)c2cc3c(nc21)OCC3` [Compound 20], the pIC50 is not below 6.70.
With `Cc1cc2c(C(N)=O)c(N)n(-c3c(C)c(O)cc(F)c3Cl)c2nc1C` [Compound 24] the figure was not below 6.70.
With `Cc1cc2c(C(N)=O)c(N)n(-c3c(C)c(F)cc(O)c3Cl)c2nc1C` [Compound 25] the figure was not below 6.70.
For `Cc1ccc(O)c(C)c1-n1c(N)c(C(N)=O)c2cc3c(nc21)CCCO3` [Compound 26], the pIC50 was not below 6.70.
To `Cc1ccc(O)c(C)c1-n1c(N)c(C(N)=O)c2cc3c(nc21)CCOC3` [Compound 29] belongs not below 6.70; to `Cc1ccc(O)c(C)c1-n1c(N)c(C(N)=O)c2cc3c(nc21)COCC3` [Compound 32], not below 6.70; to `Cc1ccc(O)c(C)c1-n1c(N)c(C(N)=O)c2cc3c(nc21)OCCC3` [Compound 35], not below 6.70.
To `Cc1ccc(O)c(C)c1-n1c(N)c(C(N)=O)c2cc3c(nc21)OCO3` [Compound 38] belongs not below 6.70; to `Cc1ccc(O)c(C)c1-n1c(N)c(C(N)=O)c2cc3cccnc3nc21` [Compound 41], not below 6.70; to `Cc1ccc(O)c(C)c1-n1c(N)c(C(N)=O)c2cc3ccncc3nc21` [Compound 44], not below 6.70.
To `Cc1ccc(O)c(C)c1-n1c(N)c(C(N)=O)c2cc3cnccc3nc21` [Compound 47] belongs not below 6.70; to `Cc1ccc(O)c(C)c1-n1c(N)c(C(N)=O)c2cc3ncccc3nc21` [Compound 50], not below 6.70.
As for `Cc1ccc(O)c(C)c1-n1c(N)c(C(N)=O)c2cc3nccnc3nc21` [Compound 53], the pIC50 is not below 6.70.
To `Cc1ccc(O)c(C)c1-n1c(N)c(C(N)=O)c2cc3cnncc3nc21` [Compound 56] belongs not below 6.70; to `Cc1ccc(O)c(C)c1-n1c(N)c(C(N)=O)c2cc3cnncc3cc21` [Compound 59], not below 6.70; to `Cc1ccc(O)c(C)c1-n1c(N)c(C(N)=O)c2cc3nccnc3cc21` [Compound 60], not below 6.70.
Consider `Cc1ccc(O)c(C)c1-n1c(N)c(C(N)=O)c2cc3ccoc3nc21` [Compound 61], for which the pIC50 was not below 6.70.
With `Cc1ccc(O)c(C)c1-n1c(N)c(C(N)=O)c2cc3occc3nc21` [Compound 62] the figure was not below 6.70; with `Cc1ccc(O)c(C)c1-n1c(N)c(C(N)=O)c2cc3cocc3nc21` [Compound 63], not below 6.70.
To `Cc1ccc(O)c(C)c1-n1c(N)c(C(N)=O)c2cc3nc[nH]c3nc21` [Compound 64] belongs not below 6.70; to `Cc1ccc(O)c(C)c1-n1c(N)c(C(N)=O)c2cc3ncn(C)c3nc21` [Compound 65], not below 6.70.
With `Cc1ccc(O)c(C)c1-n1c(N)c(C(N)=O)c2cc3c(ncn3C)nc21` [Compound 66] the figure was not below 6.70; with `Cc1ccc(O)c(C)c1-n1c(N)c(C(N)=O)c2cc3ncoc3nc21` [Compound 67], not below 6.70.
Consider `Cc1ccc(O)c(C)c1-n1c(N)c(C(N)=O)c2cc3ocnc3nc21` [Compound 68], for which the pIC50 was not below 6.70.
As to `Cc1ccc(O)c(C)c1-n1c(N)c(C(N)=O)c2cc3ncsc3nc21` [Compound 69], the pIC50 was not below 6.70.
With `Cc1ccc(O)c(C)c1-n1c(N)c(C(N)=O)c2cc3scnc3nc21` [Compound 70] the figure was not below 6.70.
To `Cc1ccc(O)c(C)c1-n1c(N)c(C(N)=O)c2cc3ccn(C)c3nc21` [Compound 71] belongs not below 6.70; to `Cc1ccc(O)c(C)c1-n1c(N)c(C(N)=O)c2cc3c(ccn3C)nc21` [Compound 72], not below 6.70.
To `Cc1ccc(O)c(C)c1-n1c(N)c(C(N)=O)c2cc3cn(C)cc3nc21` [Compound 73] belongs not below 6.70; to `Cc1ccc(O)c(C)c1-n1c(N)c(C(N)=O)c2cc3ccsc3nc21` [Compound 74], not below 6.70.
As to `Cc1ccc(O)c(C)c1-n1c(N)c(C(N)=O)c2cc3sccc3nc21` [Compound 75], the pIC50 is not below 6.70.
With `Cc1ccc(O)c(C)c1-n1c(N)c(C(N)=O)c2cc3cscc3nc21` [Compound 76] the figure was not below 6.70.
Take `Cc1ccc(O)c(C)c1-n1c(N)c(C(N)=O)c2cc3c(nc21)CCN3` [Compound 77]: the pIC50 is not below 6.70.
With `Cc1ccc(O)c(C)c1-n1c(N)c(C(N)=O)c2cc3c(nc21)NCC3` [Compound 80] the figure was not below 6.70; with `Cc1ccc(O)c(C)c1-n1c(N)c(C(N)=O)c2cc3c(nc21)CNC3` [Compound 84], not below 6.70.
In the case of `Cc1ccc(O)c(C)c1-n1c(N)c(C(N)=O)c2cc3c(nc21)CCN3C` [Compound 87], the pIC50 was not below 6.70.
With `Cc1ccc(O)c(C)c1-n1c(N)c(C(N)=O)c2cc3c(nc21)N(C)CC3` [Compound 90] the figure was not below 6.70.
With `Cc1ccc(O)c(C)c1-n1c(N)c(C(N)=O)c2cc3c(nc21)CN(C)C3` [Compound 93] the figure was not below 6.70.
With `Cc1ccc(O)c(C)c1-n1c(N)c(C(N)=O)c2cc3c(nc21)CCN(C)C3` [Compound 96] the figure was not below 6.70; with `Cc1ccc(O)c(C)c1-n1c(N)c(C(N)=O)c2cc3c(nc21)CN(C)CC3` [Compound 99], not below 6.70; with `Cc1ccc(O)c(C)c1-n1c(N)c(C(N)=O)c2cc3c(nc21)CCCN3` [Compound 102], not below 6.70.
Take `Cc1ccc(O)c(C)c1-n1c(N)c(C(N)=O)c2cc3c(nc21)NCCC3` [Compound 103]: the negative logarithm of the IC50 (pIC50) is not below 6.70.
As to `Cc1ccc(O)c(C)c1-n1c(N)c(C(N)=O)c2cc3c(nc21)CCCN3C` [Compound 104], the negative logarithm of the IC50 (pIC50) is not below 6.70.
As for `Cc1ccc(O)c(C)c1-n1c(N)c(C(N)=O)c2cc3c(nc21)N(C)CCC3` [Compound 105], the pIC50 was not below 6.70.
For `Cc1ccc(O)c(C)c1-n1c(N)c(C(N)=O)c2cc3c(nc21)CC=C3` [Compound 106], the pIC50 is not below 6.70.
To `Cc1ccc(O)c(C)c1-n1c(N)c(C(N)=O)c2cc3c(nc21)C=CC3` [Compound 109] belongs not below 6.70; to `Cc1ccc(O)c(C)c1-n1c(N)c(C(N)=O)c2cc3c(nc21)CCC=C3` [Compound 112], not below 6.70; to `Cc1ccc(O)c(C)c1-n1c(N)c(C(N)=O)c2cc3c(nc21)CC=CC3` [Compound 113], not below 6.70.
To `Cc1ccc(O)c(C)c1-n1c(N)c(C(N)=O)c2cc3c(nc21)C=CCC3` [Compound 114] belongs not below 6.70; to `Cc1cc2c(C(N)=O)c(N)n(-c3c(C)c(O)cc4c3CCC4)c2nc1C` [Compound 115], not below 6.70; to `Cc1cc2c(C(N)=O)c(N)n(-c3c(C)c(O)cc4c3OCC4)c2nc1C` [Compound 118], not below 6.70.
For `Cc1cc2c(C(N)=O)c(N)n(-c3c(C)c(O)cc4c3CCO4)c2nc1C` [Compound 121], the pIC50 is not below 6.70.
In the case of `Cc1cc2c(C(N)=O)c(N)n(-c3c(C)c(O)cc4c3COC4)c2nc1C` [Compound 124], the negative-log IC50 (pIC50) was not below 6.70.
Consider `Cc1cc2c(C(N)=O)c(N)n(-c3c(C)c(O)cc4occc34)c2nc1C` [Compound 129], for which the pIC50 was not below 6.70.
With `Cc1cc2c(C(N)=O)c(N)n(-c3c(C)c(O)cc4ccoc34)c2nc1C` [Compound 130] the figure was not below 6.70.
To `Cc1c(O)cc(F)c(C)c1-n1c(N)c(C(N)=O)c2cc3c(nc21)COC3` [Compound 131] belongs not below 6.70; to `Cc1cc(F)c(O)c(C)c1-n1c(N)c(C(N)=O)c2cc3c(nc21)COC3` [Compound 134], not below 6.70.
Take `Cc1nc2c(cc1C#N)c(C(N)=O)c(N)n2-c1c(C)c(O)cc(F)c1C` [Compound 137]: the pIC50 is not below 6.70.
To `Cc1cc(F)c(O)c(C)c1-n1c(N)c(C(N)=O)c2cc(C#N)c(C)nc21` [Compound 140] belongs not below 6.70; to `Cc1cc2c(C(N)=O)c(N)n(-c3c(C)c(O)cc(F)c3C)c2nc1C#N` [Compound 143], not below 6.70; to `Cc1cc2c(C(N)=O)c(N)n(-c3c(C)cc(F)c(O)c3C)c2nc1C#N` [Compound 146], not below 6.70.
With `Cc1cc2c(C(N)=O)c(N)n(-c3c(C)cc4c(c3C)NCC4)c2nc1C` [Compound 149] the figure was not below 6.70.
For `Cc1cc2c(C(N)=O)c(N)n(-c3c(C)cc4c(c3C)OCC4)c2nc1C` [Compound 152], the pIC50 was not below 6.70.
With `Cc1cc2c(cc1C#N)c(C(N)=O)c(N)n2-c1c(C)ccc(O)c1C` [Compound 154] the figure was not below 6.70; with `Cc1cc2c(C(N)=O)c(N)n(-c3c(C)ccc(O)c3C)c2cc1C#N` [Compound 157], not below 6.70.
As for `Cc1cc2c(cc1C#N)c(C(N)=O)c(N)n2-c1c(C)c(O)cc(F)c1C` [Compound 160], the negative-log IC50 (pIC50) was not below 6.70.
With `Cc1cc2c(cc1C#N)c(C(N)=O)c(N)n2-c1c(C)cc(F)c(O)c1C` [Compound 163] the figure was not below 6.70; with `Cc1cc2c(C(N)=O)c(N)n(-c3c(C)c(O)cc(F)c3C)c2cc1C#N` [Compound 166], not below 6.70.
